Here are results for 37 compounds from US11555031B2, “Compounds and methods for regulating insulin secretion” (The Broad Institute, Inc., priority 2017, dated 2023).

Entries after “also recorded” stand apart in the source; their conditions may differ.

In the first assay the test system is INS-1E cells. Nature of the assay: Luciferase Insulin Secretion Assay (proinsulin-Gaussia luciferase reporter). The class given is cell-based, rat. Also on record: key to Activity: Active: a compound is identified as active if the compound has a Z-score greater than 3 in the presence of 16.7 mM glucose; Partial activity indicates that the compound does promote insulin secretion (at lower Z-scores); Lost Glucose Dependence: In some cases, insulin secretion was promoted at both measured insulin concentrations. To be noted: INS-1E cells; 2.8 mM vs 16.7 mM glucose. From the text:
A high-throughput luminescent insulin secretion assay was developed and performed to identify compounds that amplified insulin secretion only in the presence of a permissive glucose environment (FIG. 3). The assay used in compound screening is described in International Patent Publication No. WO2013070796A3, PCT/US2012/063982, and in Burns et al., High-Throughput Luminescent Reporter of Insulin Secretion for Discovering Regulators of Pancreatic Beta-Cell Function. Cell Metab. 2015 Jan. 6; 21(1):126-37.
The assay is a luminescent insulin secretion assay created by inserting Gaussia luciferase within the C-peptide portion of the insulin prohormone. Gaussia luciferase was chosen because of its small size and bright luciferase signal. To ensure full activity of the luciferase, a version was used that was codon-optimized for expression in mammalian cells. The enzyme was flanked with additional cleavage sites for prohormone convertase 2 (PC2), such that no extra amino acids should be present on the ends of the enzyme after processing within the vesicles (FIG. 4). Rat (INS-1E; Merglen et al., 2004) beta-cell lines stably expressing the reporter construct were generated. Assays using this cell type are referred to herein as Luciferase Insulin Secretion Assay.
A search for glucose-dependent insulin secretagogues was conducting by screening 384,216 compounds at a single concentration (10 μM) in duplicate using the Luciferase Insulin Secretion Assay, to identify those that increase insulin secretion only in the presence of high glucose (11.1 mM) (FIG. 6). These assays were performed in 1536 well format. A Z′ factor of 0.35 was obtained with respect the positive control (300 μM IBMX). The cutoff value selected was 45% activation, which was 3-4 standard deviations above background (solid uppermost line; FIG. 6).
For standard secretion assays, INS-1E cells were plated in 96-well format, preincubated for 1 hr in Krebs Ringer Buffer (KRB) with 2.8 mM glucose, and then stimulated for 1 hr in fresh KRB containing varying amounts of glucose and compounds. Insulin or C-peptide concentration was determined using an ELISA (Mercodia), following the manufacturer's protocol. Luciferase activity was determined from the same samples by adding the coelenterazine substrate to the supernatant to a final concentration of 10 μM and reading on a standard plate reader (BioTek).
INS-1E cells were expanded to 80% confluence in their growth medium, washed once in PBS, and preincubated for 1 hr at 37° C. in KRB with 2.8 mM glucose. Cells were then dissociated, spun at 300×g for 2 min, resuspended in fresh KRB without glucose, and filtered through 40 μm mesh (Becton Dickinson). Next, the cells were counted and diluted in KRB to 1×10^6 cells per ml, and glucose was added as required for each experiment. Cells were then seeded in 384-well format, 3×10^4 cells in 30 μl per well, using a Multidrop Combi device (Thermo Scientific). Compounds were pinned into each well using a Vario robot (CyBio) to a final concentration of 30 μM, and the plates were then incubated for 2 hr at 37° C. For assays involving a transfer step, the plates were then centrifuged at 300×g for 2 min, and 20 μl of supernatant was transferred to a new 384-well plate. Coelenterazine substrate was then added to a final concentration of 10 μM, and luciferase activity was determined using a standard plate reader (BioTek).
(Reporter assays use an easily measured gene product as a stand-in for the process of interest.)
Turning to `Cc1ccccc1NC(=O)c1ccc(OCc2c(C)noc2C)cc1` [Compound 17], the “glucose-dependent (glucose-stimulated) insulin secretion, luciferase reporter” value (from here on “glucose-dependent”) is reported as “some positive effect on secretion”.

Regarding `COc1ccc(CCc2nc3cc(-c4c(C)noc4C)ccc3n2C[C@H](C)N2CCOCC2)cc1Cl` [CBP30, reference compound], the “glucose-dependent” value is recorded as “neither of the known bromodomain inhibitors (PF1 or CBP30) affect secretion to the extent of Compound 8”.

On to `COc1ccc(CCc2nc3cc(-c4c(C)noc4C)ccc3n2C[C@H](C)N2CCOCC2)cc1Cl` [SGC-CBP30, reference compound], for which the “glucose-dependent” value was “None of the compounds assayed increased glucose-dependent insulin secretion”.

For the compound `Cc1sc2c(c1C)C(c1ccc(Cl)cc1)=N[C@@H](CC(=O)OC(C)(C)C)c1nnc(C)n1-2` [JQ1, reference compound], the “glucose-dependent” value is on record as “None of the compounds assayed increased glucose-dependent insulin secretion; also recorded: No increase in secretion; also recorded: small effect”.

For `COc1ccccc1S(=O)(=O)Nc1ccc2c(c1)CN(C)C(=O)N2` [PF-1, reference compound], the “glucose-dependent” value is “None of the compounds assayed increased glucose-dependent insulin secretion”.

For the compound `COc1ccccc1S(=O)(=O)Nc1ccc2c(c1)CN(C)C(=O)N2` [PF1, reference compound], the “glucose-dependent” value was “neither of the known bromodomain inhibitors (PF1 or CBP30) affect secretion to the extent of Compound 8”.

Still in this assay, the particulars now being: INS-1E cells; high compound concentrations.
On to `COc1ccc(CCc2nc3cc(-c4c(C)noc4C)ccc3n2C[C@H](C)N2CCOCC2)cc1Cl` [SGC-CBP30, reference compound], for which the “effect on glucose-stimulated insulin secretion at high concentrations” value (shortened to “effect”) is given as “inhibitory effects”.

For `Cc1sc2c(c1C)C(c1ccc(Cl)cc1)=N[C@@H](CC(=O)OC(C)(C)C)c1nnc(C)n1-2` [JQ1, reference compound], the “effect” value was “inhibitory effects; also recorded: decrease in glucose-stimulated secretion”.

`COc1ccccc1S(=O)(=O)Nc1ccc2c(c1)CN(C)C(=O)N2` [PF-1, reference compound]: the “effect” value was “inhibitory effects”.

The same assay, now with this note: glucose dependence of insulin secretion; Z-score in the presence of 16.7 mM glucose.
In the case of `Cc1ccncc1COc1ccc(C(=O)Nc2cccc(C)c2C)cc1` [Compound 64, N-(2,3-Dimethyl-phenyl)-4-(4-methyl-pyridin-3-ylmethoxy)-benzamide], the outcome was Inactive.

`Cc1cccc(NC(=O)c2ccc(OCc3c(C)noc3C)cc2)c1` [Compound 75]: the outcome was Inactive.

In the case of `COCc1cccc(NC(=O)c2ccc(OCc3c(C)noc3C)cc2)c1` [Compound 84, 4-(3,5-Dimethyl-isoxazol-4-ylmethoxy)-N-(3-methoxymethyl-phenyl)-benzamide], the result was Inactive.

As to `Cc1cccc(NC(=O)c2ccc(OCc3ccncc3)cc2)c1C` [Compound 60, N-(2,3-Dimethyl-phenyl)-4-(pyridin-4-ylmethoxy)-benzamide], the outcome was Inactive.

On to `Cc1cccc(NC(=O)c2ccc(OCc3c(C)noc3C)cc2)n1` [Compound 82], for which the outcome was Inactive.

For the compound `Cc1cccc(NC(=O)c2ccc(OCc3cccnc3)cc2)c1C` [Compound 61, N-(2,3-Dimethyl-phenyl)-4-(pyridin-3-ylmethoxy)-benzamide], the result was Inactive.

Consider `Cc1cccc(-c2nc(C)c(-c3ccc(NCc4c(C)noc4C)cc3)[nH]2)c1C` [Compound 30], for which the outcome was Inactive.

With `Cc1noc(C)c1COc1ccc(C(=O)Nc2cccc(C#N)c2C)cc1` [Compound 83, N-(3-Cyano-2-methyl-phenyl)-4-(3,5-dimethyl-isoxazol-4-ylmethoxy)-benzamide], the outcome was Inactive.

Consider `Cc1ccccc1NC(=O)c1ccc(OCc2c(C)noc2C)cc1` [Compound 76], for which the result was Inactive.

`COc1ncccc1COc1ccc(C(=O)Nc2cccc(C)c2C)cc1` [Compound 65, N-(2,3-Dimethyl-phenyl)-4-(2-methoxy-pyridin-3-ylmethoxy)-benzamide]: the result was Inactive.

In the case of `Cc1cccc(NC(=O)c2ccc(OCc3c(C)noc3C)cc2)c1Cl` [Compound 78, N-(2-Chloro-3-methyl-phenyl)-4-(3,5-dimethyl-isoxazol-4-ylmethoxy)-benzamide], the result was Inactive.

As for `Cc1cccc(NC(=O)c2ccc(OCc3c(C)noc3C)c(CCCN=[N+]=[N-])c2)c1C` [Compound 89, 3-(3-Azido-propyl)-4-(3,5-dimethyl-isoxazol-4-ylmethoxy)-N-(2,3-dimethyl-phenyl)-benzamide], the outcome was Inactive.

Consider `Cc1cccc(-c2cc(-c3ccc(NCc4c(C)noc4C)cc3)[nH]n2)c1C` [Compound 28], for which the result was Inactive.

As to `Cc1cccc(NC(=O)c2ccc(OCc3cn(C)nc3C)cc2)c1C` [Compound 53], the outcome was Inactive.

For the compound `Cc1cccc(NC(=O)c2ccc(OCc3ccccn3)cc2)c1C` [Compound 62], the outcome was Inactive.

As to `Cc1cccc(NS(=O)(=O)c2ccc(OCc3c(C)noc3C)cc2)c1C` [Compound 97, 4-(3,5-Dimethyl-isoxazol-4-ylmethoxy)-N-(2,3-dimethyl-phenyl)-benzenesulfonamide], the outcome was Inactive.

Take `Cc1cccc(NC(=O)c2ccc(OCc3c(C)cnn3C)cc2)c1C` [Compound 48]: the outcome was Inactive.

For `Cc1cccc(NC(=O)c2ccc(OC(C)c3c(C)noc3C)cc2)c1C` (stereo not shown) [Compound 52], the result was Inactive.

Regarding `CC(=O)NCc1ccccc1NC(=O)c1ccc(OCc2c(C)noc2C)cc1` [Compound 90, N-[2-(Acetylamino-methyl)-phenyl]-4-(3,5-dimethyl-isoxazol-4-ylmethoxy)-benzamide], the result was Inactive.

For the compound `Cc1cccc(NC(=O)c2ccc(OCc3c(C)noc3C)cc2O)c1C` [Compound 46], the result was Inactive.

In the case of `Cc1cccc(-c2cnc(-c3ccc(OCc4c(C)noc4C)cc3)[nH]2)c1C` [Compound 94], the result was Inactive.

For the compound `Cc1noc(C)c1COc1ccc(C(=O)N2CCCc3ccccc32)cc1` [Compound 80], the result was Inactive.

As for `Cc1cccc(-c2ncc(-c3ccc(NCc4c(C)noc4C)cc3)[nH]2)c1C` [Compound 29], the result was Inactive.

For the compound `CC(=O)NCc1cccc(NC(=O)c2ccc(OCc3c(C)noc3C)cc2)c1` [Compound 91, N-[3-(Acetylamino-methyl)-phenyl]-4-(3,5-dimethyl-isoxazol-4-ylmethoxy)-benzamide], the result was Inactive.

As for `Cc1noc(C)c1COc1ccc(C(=O)N2CCc3ccccc32)cc1` [Compound 79], the outcome was Inactive.

Consider `Cc1cccc(-c2nc3cc(NCc4c(C)noc4C)ccc3[nH]2)c1C` [Compound 34], for which the result was Inactive.

Turning to `Cc1noc(C)c1COc1ccc(C(=O)Nc2cccc3ccccc23)cc1` [Compound 74, 4-(3,5-Dimethyl-isoxazol-4-ylmethoxy)-N-naphthalen-1-yl-benzamide], the outcome was Inactive.

In the case of `Cc1cccc(NC(c2ccc(NCc3c(C)noc3C)cc2)C(F)(F)F)c1C` (stereo not shown) [Compound 33], the outcome was Inactive.

Take `Cc1cccc(C)c1NC(=O)c1ccc(OCc2c(C)noc2C)cc1` [Compound 77]: the result was Inactive.

Regarding `Cc1cccc(NC(=O)c2ccc(OCc3c(C)noc3C)cc2)c1CO` [Compound 70], the result was Active.

In the case of `Cc1noc(C)c1COc1ccc(C(=O)Nc2cccc3c2CCCC3)cc1` [Compound 73, 4-(3,5-Dimethyl-isoxazol-4-ylmethoxy)-N-(5,6,7,8-tetrahydro-naphthalen-1-yl)benzamide], the result was Inactive.
